# Data from PubChem BioAssay AID1919008 (Molecular Pharmacology Branch, DTP, NCI, 2023).
# System: DMS-114 complex spheroids with HUVEC/MSC, growth % test/control
# Assay: Anticancer human tumor DMS-114 cell line growth inhibition [AhR];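 note: spheroids exposed to agents for 7 days before readout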;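 for viability, T/C: 100% = DMSO vehicle control wells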
# Conditions: for IC50: curve of first compound; for viability, T/C: stronger effect = lower value
# In short: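 Spheroids combined tumor cells with HUVEC endothelial cells and human MSCs as stroma. AhR antagonists were paired with standard or investigational drugs, each dosed in half-log steps down from near clinical Cmax, or from 10 microM where Cmax was unknown.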
# [1] = second compound 0.1 µM, first compound 0.0316 µM
# [2] = second compound 0.1 µM, first compound 0.1 µM
# [3] = second compound 0.316 µM, first compound 0.0316 µM
# [4] = second compound 0.316 µM, first compound 0.1 µM
# [5] = second compound 1 µM, first compound 0.0316 µM
# [6] = second compound 1 µM, first compound 0.1 µM
# [7] = second compound 3.16 µM, first compound 0.0316 µM
# [8] = second compound 3.16 µM, first compound 0.1 µM
# [9] = second compound 10 µM, first compound 0.0316 µM
# [10] = second compound 10 µM, first compound 0.1 µM
smiles,measurement,setting,value
Cn1ncnc1C1c2n[nH]c(=O)c3cc(F)cc(c23)NC1c1ccc(F)cc1 (stereo not given) + Cc1ccccc1N=Nc1ccc(NC(=O)c2ccnn2C)c(C)c1,IC50,second compound 0.1 µM,> 0.1 µM
same,IC50,second compound 0.316 µM,> 0.1 µM
same,IC50,second compound 1 µM,> 0.1 µM
same,IC50,second compound 3.16 µM,> 0.1 µM
same,IC50,second compound 10 µM,> 0.1 µM
same,"viability, T/C","second compound 0.1 µM, first compound 0.000316 µM",118%
same,"viability, T/C","second compound 0.1 µM, first compound 0.001 µM",101%
same,"viability, T/C","second compound 0.1 µM, first compound 0.00316 µM",111%
same,"viability, T/C","second compound 0.1 µM, first compound 0.01 µM",110%
same,"viability, T/C",[1],120%
same,"viability, T/C",[2],107%
same,"viability, T/C","second compound 0.316 µM, first compound 0.000316 µM",104%
same,"viability, T/C","second compound 0.316 µM, first compound 0.001 µM",105%
same,"viability, T/C","second compound 0.316 µM, first compound 0.00316 µM",104%
same,"viability, T/C","second compound 0.316 µM, first compound 0.01 µM",113%
same,"viability, T/C",[3],104%
same,"viability, T/C",[4],112%
same,"viability, T/C","second compound 1 µM, first compound 0.000316 µM",103%
same,"viability, T/C","second compound 1 µM, first compound 0.001 µM",112%
same,"viability, T/C","second compound 1 µM, first compound 0.00316 µM",108%
same,"viability, T/C","second compound 1 µM, first compound 0.01 µM",101%
same,"viability, T/C",[5],111%
same,"viability, T/C",[6],113%
same,"viability, T/C","second compound 3.16 µM, first compound 0.000316 µM",96%
same,"viability, T/C","second compound 3.16 µM, first compound 0.001 µM",104%
same,"viability, T/C","second compound 3.16 µM, first compound 0.00316 µM",102%
same,"viability, T/C","second compound 3.16 µM, first compound 0.01 µM",111%
same,"viability, T/C",[7],98.3%
same,"viability, T/C",[8],104%
same,"viability, T/C","second compound 10 µM, first compound 0.000316 µM",93.5%
same,"viability, T/C","second compound 10 µM, first compound 0.001 µM",93.3%
same,"viability, T/C","second compound 10 µM, first compound 0.00316 µM",90%
same,"viability, T/C","second compound 10 µM, first compound 0.01 µM",96.2%
same,"viability, T/C",[9],95.1%
same,"viability, T/C",[10],95%
NS(=O)(=O)OCC1CC(n2ccc3c(NC4CCc5ccccc54)ncnc32)CC1O (stereo not given) + Cc1ccccc1N=Nc1ccc(NC(=O)c2ccnn2C)c(C)c1,IC50,second compound 0.1 µM,0.229 µM
same,IC50,second compound 0.316 µM,0.203 µM
same,IC50,second compound 1 µM,0.201 µM
same,IC50,second compound 3.16 µM,0.228 µM
same,IC50,second compound 10 µM,0.215 µM
same,"viability, T/C",[1],137%
same,"viability, T/C",[2],84.8%
same,"viability, T/C","second compound 0.1 µM, first compound 0.316 µM",37%
same,"viability, T/C","second compound 0.1 µM, first compound 1 µM",18.4%
same,"viability, T/C","second compound 0.1 µM, first compound 3.16 µM",19%
same,"viability, T/C","second compound 0.1 µM, first compound 10 µM",16.1%
same,"viability, T/C",[3],113%
same,"viability, T/C",[4],73.9%
same,"viability, T/C","second compound 0.316 µM, first compound 0.316 µM",34.3%
same,"viability, T/C","second compound 0.316 µM, first compound 1 µM",22.8%
same,"viability, T/C","second compound 0.316 µM, first compound 3.16 µM",17.2%
same,"viability, T/C","second compound 0.316 µM, first compound 10 µM",16.3%
same,"viability, T/C",[5],119%
same,"viability, T/C",[6],76.7%
same,"viability, T/C","second compound 1 µM, first compound 0.316 µM",32%
same,"viability, T/C","second compound 1 µM, first compound 1 µM",23.4%
same,"viability, T/C","second compound 1 µM, first compound 3.16 µM",21.6%
same,"viability, T/C","second compound 1 µM, first compound 10 µM",17.3%
same,"viability, T/C",[7],128%
same,"viability, T/C",[8],80.9%
same,"viability, T/C","second compound 3.16 µM, first compound 0.316 µM",37.6%
same,"viability, T/C","second compound 3.16 µM, first compound 1 µM",24.1%
same,"viability, T/C","second compound 3.16 µM, first compound 3.16 µM",19.9%
same,"viability, T/C","second compound 3.16 µM, first compound 10 µM",21.3%
same,"viability, T/C",[9],86.5%
same,"viability, T/C",[10],77.5%
same,"viability, T/C","second compound 10 µM, first compound 0.316 µM",35.9%
same,"viability, T/C","second compound 10 µM, first compound 1 µM",25.7%
same,"viability, T/C","second compound 10 µM, first compound 3.16 µM",22.4%
same,"viability, T/C","second compound 10 µM, first compound 10 µM",20.1%
